Experiments:
MR90 cells = assay: Flow cytometry analysis of EPCAM expression in SB431542-treated MR90; format: cell-based, human
Protocol: (a) the isotype Ab control. […] The EPCAM-(CD326-) cell population have been identified as the precursors of the mesodermal cell lineage. These cells can be further differentiated into mesenchymal stem cell lineage, like MSC. The iPSC MR90 cells were cultured in mTeSR and KOSR condition medium with SB431542 for 10 days, and then subcultured into MSC medium to differentiate cells into MSC. […] Analysis was performed by flow cytometry for EPCAM expression in the SB431542-treated MR90 cells after at 10 days in culture.

[1] = system: BMP signaling utilizing ALK-1, -2, -3, and -6; settings: Inman et al. 2002; Laping et al. 2002; cited from earlier work
iPSC = assay: Immunofluorescence marker analysis of iPSC differentiated in the presence of SB431542; format: cell-based, human
Excerpt: Nuclei were counter-stained with dapi (blue). […] Nuclei were counter-stained with dapi (blue).

MR90 = assay: qRT-PCR gene expression analysis of SB431542-treated MR90; format: cell-based, human; settings: MR90, 10 μM SB431542, 10 days
Protocol: Pluripotent iPSC, MR90, were cultured in KOSR medium with 10 μM SB431542 treatment for 10 days. After 10 days treatment, MR90 cells were subcultured in the MSC medium for differentiating MSC cells. […] MSC are indicated as MR90-MSC P0 (passage 0). The SB431542 treated cells and MR90-MSC P0 were analyzed for gene expression. (a-d) OCT4, SOX2, MYST2 and EPCAM genes associated with iPSC pluripotency. (e-h) NCAM, MSX2, LEFTY1 and BMP4 genes expressed by cell lineages from the mesoderm. (i-j) PAX6 gene is expressed by cell lineages from the ectoderm and CDX2 gene is expressed by cell lineages from the trophectoderm. (k) GATA gene expressed by cell lineages from the endoderm. (l-o) Genes expressed by MSC (positive in CD29, CD73 and negative in the CD117, CD133). Gene expression was normalized to GAPDH. All experiments represent duplicates.
(A, B) The heat map of mRNA expression level was assayed by qRT-PCR array. ESC/iPSC cells were cultured in KOSR condition medium with 10 μM SB431542. […] (C) Relative mRNA transcripts folds change of quantitative RT-PCR analysis in the indicated cell subsets. […]
Pluripotent iPSC (MR90) were cultured in mTESR medium and KOSR medium with 10 μM SB431542 for 10 days. […] After 10 days, SB431542-treated cells and MR90-MSC P0 cells were analyzed for gene expression (see FIG. 13). […]

ALK-4, -5 and -7 = settings: Inman et al. 2002; Laping et al. 2002; cited from earlier work
SMAD2/3 phosphorylation = settings: Xu et al. 2008; cited from earlier work
hESC = assay: Morphology of hESC cultured in the presence of SB431542; format: cell-based, human; settings: after 10 days incubation with SB431542
Excerpt: (A) hESC remain as tightly packed colonies of small cells when cultured in normal growth conditions. […] (B) When these cells are transferred to MSC media, they again change morphology and become fibroblastic. (C) MSC also have a fibroblast-like morphology. (D) hiPSC line ES4CL1 also differentiates though an epithelial-like morphology into MSC-like cells with this SB431542 inhibitor culture method.
Day −4 to −1: hESC/iPSC were dissociated from mouse embryonic fibroblast (MEF) feeder layer and seeded on either un-coated flasks (i.e., which allow for adherence (attachment) of the pluripotent cells to the surface) or matrigel-coated flasks in mTESR (defined pluripotent stem cell media, Stem Cell Technologies; i.e. serum free, feeder layer free).
Day 1: when cell colonies were approximately 40% confluent, 10 uM SB431542 inhibitor (Sigma Aldrich) was added in DMEM:F12+20% knock out serum replacement (KOSR, Invitrogen) media.
Day 2-9: 20% KOSR+SB431542 inhibitor media replaced daily.
Day 7-10: when 90%+ cells have differentiated from hESC colonies to a monolayer with epithelial-like morphology, cells were passaged using TrypleSelect. Single cells were then seeded at 3×10^4-1.5×10^5 cells/cm^2 in fetal MSC medium (DMEM-HG+10% MSC qualified FBS), then passage when nearly confluent as for MSC.

MEL1 = assay: qRT-PCR gene expression analysis of SB431542-treated MEL1; format: cell-based, human; settings: MEL1, 10 μM SB431542, 10 days
Protocol: The pluripotent hESC line, MEL1, was cultured in KOSR medium with 10 μM SB431542 treatment. After 10 days treatment, MEL1 cells were subcultured in MSC medium for differentiating MSC cells. […] SB431542 treated cells and MEL1-MSC P2 were analyzed for gene expression. (a-d) OCT4, SOX2, MYST2 and EPCAM genes associated with iPSC pluripotency. (e-h) NCAM, MSX2, LEFTY1 and BMP4 genes expressed by cell lineages from the mesoderm. (i-j) PAX6 gene is expressed by cell lineages from the ectoderm and CDX2 gene is expressed by cell lineages from the trophectoderm. (k) GATA gene expressed by cell lineages from the endoderm. (l-o) Genes expressed by MSC (positive in CD29, CD73 and negative in the CD117, CD133). Gene expression was normalized to GAPDH. All experiments represent duplicates. […] (A, B) The heat map of mRNA expression level was assayed by qRT-PCR array. ESC/iPSC cells were cultured in KOSR condition medium with 10 μM SB431542. After 10 days treatment, cells were subcultured into MSC medium to differentiate cells into MSC. RNA was extracted from MEL1 and MR90 cells at day 10. […] (C) Relative mRNA transcripts folds change of quantitative RT-PCR analysis in the indicated cell subsets. All the gene expression level was normalized to GAPDH mRNA level and compared to genes level in the mTESR culture condition. […]

[2] = compared with undifferentiated cells in mTeSR medium

NC(=O)c1ccc(-c2nc(-c3ccc4c(c3)OCO4)c(-c3ccccn3)[nH]2)cc1 [SB431542, 4-[4-(1,3-benzodioxol-5-yl)-5-(2-pyridinyl)-1H-imidazol-2-yl]-benzamide]
population of EPCAM+ MR90 cell (MR90 cells; KOSR medium with SB431542, 10 days, decreased from 22.84%): 5.94% | population of EPCAM+ MR90 cell (MR90 cells; MTESR medium with SB431542, 10 days, decreased from 45%): 8.14% | effect on BMP signaling utilizing ALK-1, -2, -3, and -6 [1]: without affecting | expression of pluripotency markers (Oct4, Nanog, Stella, SSEA3, Tra 1-60 and Tra 1-81) (iPSC): decreased expression | differentiation into germ layer lineages (lineage gene expression) (MR90): induced MR90 differentiate into mesoderm (MSX1, MSX2, NCAM1, BMP4), ectoderm (PAX6) and trophectoderm (CDX2) | relative mRNA levels of pluripotent genes (Pou5F (Oct4), SOX2, MYST2) (MR90; [2]): decreased | inhibition of ALK-4, -5 and -7 (ALK-4, -5 and -7): selective and potent inhibitor | effect on SMAD2/3 phosphorylation and NANOG promoter activity in hESC (SMAD2/3 phosphorylation): inhibiting SMAD2/3 phosphorylation and subsequent decrease in NANOG promoter activity | cell morphology (hESC): differentiated into an epithelial-like monolayer | differentiation into germ layer lineages (lineage gene expression) (MEL1): enhanced MEL1 differentiation into mesoderm (MSX1, MSX2, SOX9, NCAM1, BMP4), ectoderm (PAX6), trophectoderm (CDX2), endoderm (GATA4) and MSC cells (CD73, CD29) | relative mRNA levels of pluripotent genes (Pou5F (Oct4), SOX2, MYST2) (MEL1; [2]): decreased

Source: US20130084267A1, “METHOD FOR STEM CELL DIFFERENTIATION” (THE UNIVERSITY OF QUEENSLAND, priority 2010, published 2013)
